In patent US12077503B2, “Substituted cyclic amides and their use as herbicides” (FMC CORPORATION, priority 2015, dated 2024):

Legend:
Assay type in all cases: in vivo
[1] = tested on: giant foxtail (Setaria faberi); assay: Test G Pre-Emergence Protocol; conditions: Setaria faberi, pre-emergence, 312 h, evaluated after 13 days; for pest or weed control at 15.625 g/ha: 15.625 g ai/ha; for pest or weed control at 15.625 g/ha / pest or weed control at 250 g/ha: read-out: Foxtail, Giant damage rating (100=total damage to plant; 0=no damage to plant); for pest or weed control at 62.5 g/ha: 62.5 g ai/ha, 100=total damage to plant, 0=no damage to plant, read-out: Foxtail, Giant damage rating; for pest or weed control at 250 g/ha: 250 g ai/ha
Procedure, shortened: (§1)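 Seeds were sown in standard soil and kept one day in a glasshouse (24/16° C day/night, 14 h light, 65% humidity), then sprayed with compound in acetone/water (50:50) containing 0.5% Tween 20 at 15.625, 62.5 or 250 g/ha. Damage was scored after 13 days (0 = none, 100 = total).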

[2] = tested on: redroot pigweed (Amaranthus retroflexus); assay: Test G Pre-Emergence Protocol; conditions: Amaranthus retroflexus, pre-emergence, 312 h, evaluated after 13 days; for pest or weed control at 15.625 g/ha: 15.625 g ai/ha; for pest or weed control at 15.625 g/ha / pest or weed control at 250 g/ha: read-out: Pigweed, Redroot damage rating (100=total damage to plant; 0=no damage to plant); for pest or weed control at 62.5 g/ha: 62.5 g ai/ha, 100=total damage to plant, 0=no damage to plant, read-out: Pigweed, Redroot damage rating; for pest or weed control at 250 g/ha: 250 g ai/ha
Procedure, shortened: as §1

[3] = tested on: velvetleaf (Abutilon theophrasti); assay: Test G Pre-Emergence Protocol; conditions: Abutilon theophrasti, pre-emergence, 312 h, evaluated after 13 days; for pest or weed control at 15.625 g/ha: 15.625 g ai/ha; for pest or weed control at 15.625 g/ha / pest or weed control at 250 g/ha: read-out: Velvetleaf damage rating (100=total damage to plant; 0=no damage to plant); for pest or weed control at 62.5 g/ha: 62.5 g ai/ha, 100=total damage to plant, 0=no damage to plant, read-out: Velvetleaf damage rating; for pest or weed control at 250 g/ha: 250 g ai/ha
Procedure, shortened: as §1

corn (Zea mays) [4] = assay: Test G Pre-Emergence Protocol; conditions: Zea mays, pre-emergence, 312 h, evaluated after 13 days; for plant injury at 15.625 g/ha: 15.625 g ai/ha; for plant injury at 15.625 g/ha / plant injury at 250 g/ha: read-out: Corn damage rating (100=total damage to plant; 0=no damage to plant); for plant injury at 62.5 g/ha: 62.5 g ai/ha, 100=total damage to plant, 0=no damage to plant, read-out: Corn damage rating; for plant injury at 250 g/ha: 250 g ai/ha
Procedure, shortened: as §1

[5] = tested on: barnyardgrass (Echinochloa crus-galli); assay: Test G Pre-Emergence Protocol; conditions: Echinochloa crus-galli, pre-emergence, 312 h, evaluated after 13 days; for pest or weed control at 15.625 g/ha: 15.625 g ai/ha; for pest or weed control at 15.625 g/ha / pest or weed control at 250 g/ha: read-out: Barnyardgrass damage rating (100=total damage to plant; 0=no damage to plant); for pest or weed control at 62.5 g/ha: 62.5 g ai/ha, 100=total damage to plant, 0=no damage to plant, read-out: Barnyardgrass damage rating; for pest or weed control at 250 g/ha: 250 g ai/ha
Procedure, shortened: as §1

[6] = tested on: ivy-leaved morning glory (Ipomoea hederacea); assay: Test G Pre-Emergence Protocol; conditions: Ipomoea, pre-emergence, 312 h, evaluated after 13 days; for pest or weed control at 15.625 g/ha: 15.625 g ai/ha; for pest or weed control at 15.625 g/ha / pest or weed control at 250 g/ha: read-out: Morningglory, Ivy-leaved damage rating (100=total damage to plant; 0=no damage to plant); for pest or weed control at 62.5 g/ha: 62.5 g ai/ha, 100=total damage to plant, 0=no damage to plant, read-out: Morningglory, Ivy-leaved damage rating; for pest or weed control at 250 g/ha: 250 g ai/ha
Procedure, shortened: as §1

[7] = tested on: giant foxtail (Setaria faberi); assay: Test G Post-Emergence Protocol; conditions: Setaria faberi, post-emergence, 312 h, read-out: Foxtail, Giant damage rating; for pest or weed control at 15.625 g/ha: 15.625 g ai/ha, evaluated after 13 days (100=total damage to plant; 0=no damage to plant); for pest or weed control at 62.5 g/ha: 62.5 g ai/ha; for pest or weed control at 62.5 g/ha / pest or weed control at 250 g/ha: evaluated after 13 days, 100=total damage to plant, 0=no damage to plant; for pest or weed control at 250 g/ha: 250 g ai/ha
Procedure, shortened: (§2)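 Eight days post-sowing, plants received a spray of test compound (acetone/water 50:50, 0.5% Tween 20) at 15.625, 62.5 or 250 g/ha. Glasshouse regime thereafter: 24/16 °C, 14 h light, 65% humidity. Assessment after 13 days on a 0–100 damage scale.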

[8] = tested on: redroot pigweed (Amaranthus retroflexus); assay: Test G Post-Emergence Protocol; conditions: Amaranthus retroflexus, post-emergence, 312 h, read-out: Pigweed, Redroot damage rating; for pest or weed control at 15.625 g/ha: 15.625 g ai/ha, evaluated after 13 days (100=total damage to plant; 0=no damage to plant); for pest or weed control at 62.5 g/ha: 62.5 g ai/ha; for pest or weed control at 62.5 g/ha / pest or weed control at 250 g/ha: evaluated after 13 days, 100=total damage to plant, 0=no damage to plant; for pest or weed control at 250 g/ha: 250 g ai/ha
Procedure, shortened: as §2

[9] = tested on: velvetleaf (Abutilon theophrasti); assay: Test G Post-Emergence Protocol; conditions: Abutilon theophrasti, post-emergence, 312 h, read-out: Velvetleaf damage rating; for pest or weed control at 15.625 g/ha: 15.625 g ai/ha, evaluated after 13 days (100=total damage to plant; 0=no damage to plant); for pest or weed control at 62.5 g/ha: 62.5 g ai/ha; for pest or weed control at 62.5 g/ha / pest or weed control at 250 g/ha: evaluated after 13 days, 100=total damage to plant, 0=no damage to plant; for pest or weed control at 250 g/ha: 250 g ai/ha
Procedure, shortened: as §2

corn (Zea mays) [10] = assay: Test G Post-Emergence Protocol; conditions: Zea mays, post-emergence, 312 h, read-out: Corn damage rating; for plant injury at 15.625 g/ha: 15.625 g ai/ha, evaluated after 13 days (100=total damage to plant; 0=no damage to plant); for plant injury at 62.5 g/ha: 62.5 g ai/ha; for plant injury at 62.5 g/ha / plant injury at 250 g/ha: evaluated after 13 days, 100=total damage to plant, 0=no damage to plant; for plant injury at 250 g/ha: 250 g ai/ha
Procedure, shortened: as §2

[11] = tested on: barnyardgrass (Echinochloa crus-galli); assay: Test G Post-Emergence Protocol; conditions: Echinochloa crus-galli, post-emergence, 312 h, read-out: Barnyardgrass damage rating; for pest or weed control at 15.625 g/ha: 15.625 g ai/ha, evaluated after 13 days (100=total damage to plant; 0=no damage to plant); for pest or weed control at 62.5 g/ha: 62.5 g ai/ha; for pest or weed control at 62.5 g/ha / pest or weed control at 250 g/ha: evaluated after 13 days, 100=total damage to plant, 0=no damage to plant; for pest or weed control at 250 g/ha: 250 g ai/ha
Procedure, shortened: as §2

[12] = tested on: ivy-leaved morning glory (Ipomoea hederacea); assay: Test G Post-Emergence Protocol; conditions: Ipomoea, post-emergence, 312 h, read-out: Morningglory, Ivy-leaved damage rating; for pest or weed control at 15.625 g/ha: 15.625 g ai/ha, evaluated after 13 days (100=total damage to plant; 0=no damage to plant); for pest or weed control at 62.5 g/ha: 62.5 g ai/ha; for pest or weed control at 62.5 g/ha / pest or weed control at 250 g/ha: evaluated after 13 days, 100=total damage to plant, 0=no damage to plant; for pest or weed control at 250 g/ha: 250 g ai/ha
Procedure, shortened: as §2

SMILES: COc1c(F)cc(C2CN(C)C(=O)C2C(=O)Nc2cccc(F)c2F)cc1F (stereo not drawn) [Compound 1702]
- pest or weed control at 15.625 g/ha [1]: 70%
- pest or weed control at 62.5 g/ha [1]: 80%
- pest or weed control at 250 g/ha [1]: 90%
- pest or weed control at 15.625 g/ha [2]: 0%
- pest or weed control at 62.5 g/ha [2]: 0%
- pest or weed control at 250 g/ha [2]: 50%
- pest or weed control at 15.625 g/ha [3]: 0%
- pest or weed control at 62.5 g/ha [3]: 10%
- pest or weed control at 250 g/ha [3]: 70%
- plant injury at 15.625 g/ha (corn (Zea mays) [4]): 20%
- plant injury at 62.5 g/ha (corn (Zea mays) [4]): 70%
- plant injury at 250 g/ha (corn (Zea mays) [4]): 90%
- pest or weed control at 15.625 g/ha [5]: 50%
- pest or weed control at 62.5 g/ha [5]: 70%
- pest or weed control at 250 g/ha [5]: 90%
- pest or weed control at 15.625 g/ha [6]: 0%
- pest or weed control at 62.5 g/ha [6]: 30%
- pest or weed control at 250 g/ha [6]: 40%
- pest or weed control at 15.625 g/ha [7]: 70%
- pest or weed control at 62.5 g/ha [7]: 80%
- pest or weed control at 250 g/ha [7]: 80%
- pest or weed control at 15.625 g/ha [8]: 10%
- pest or weed control at 62.5 g/ha [8]: 10%
- pest or weed control at 250 g/ha [8]: 40%
- pest or weed control at 15.625 g/ha [9]: 10%
- pest or weed control at 62.5 g/ha [9]: 20%
- pest or weed control at 250 g/ha [9]: 70%
- plant injury at 15.625 g/ha (corn (Zea mays) [10]): 20%
- plant injury at 62.5 g/ha (corn (Zea mays) [10]): 20%
- plant injury at 250 g/ha (corn (Zea mays) [10]): 80%
- pest or weed control at 15.625 g/ha [11]: 60%
- pest or weed control at 62.5 g/ha [11]: 70%
- pest or weed control at 250 g/ha [11]: 80%
- pest or weed control at 15.625 g/ha [12]: 10%
- pest or weed control at 62.5 g/ha [12]: 60%
- pest or weed control at 250 g/ha [12]: 70%

SMILES: CN1CC(c2cc(F)c(Cl)c(F)c2)C(C(=O)Nc2cccc(F)c2F)C1=O (stereo not drawn) [Compound 1703]
- pest or weed control at 15.625 g/ha [1]: 80%
- pest or weed control at 62.5 g/ha [1]: 80%
- pest or weed control at 250 g/ha [1]: 90%
- pest or weed control at 15.625 g/ha [2]: 0%
- pest or weed control at 62.5 g/ha [2]: 0%
- pest or weed control at 250 g/ha [2]: 10%
- pest or weed control at 15.625 g/ha [3]: 0%
- pest or weed control at 62.5 g/ha [3]: 0%
- pest or weed control at 250 g/ha [3]: 30%
- plant injury at 15.625 g/ha (corn (Zea mays) [4]): 0%
- plant injury at 62.5 g/ha (corn (Zea mays) [4]): 60%
- plant injury at 250 g/ha (corn (Zea mays) [4]): 80%
- pest or weed control at 15.625 g/ha [5]: 50%
- pest or weed control at 62.5 g/ha [5]: 80%
- pest or weed control at 250 g/ha [5]: 80%
- pest or weed control at 15.625 g/ha [6]: 0%
- pest or weed control at 62.5 g/ha [6]: 0%
- pest or weed control at 250 g/ha [6]: 40%
- pest or weed control at 15.625 g/ha [7]: 70%
- pest or weed control at 62.5 g/ha [7]: 70%
- pest or weed control at 250 g/ha [7]: 80%
- pest or weed control at 15.625 g/ha [8]: 20%
- pest or weed control at 62.5 g/ha [8]: 60%
- pest or weed control at 250 g/ha [8]: 80%
- pest or weed control at 15.625 g/ha [9]: 10%
- pest or weed control at 62.5 g/ha [9]: 40%
- pest or weed control at 250 g/ha [9]: 70%
- plant injury at 15.625 g/ha (corn (Zea mays) [10]): 0%
- plant injury at 62.5 g/ha (corn (Zea mays) [10]): 0%
- plant injury at 250 g/ha (corn (Zea mays) [10]): 80%
- pest or weed control at 15.625 g/ha [11]: 50%
- pest or weed control at 62.5 g/ha [11]: 70%
- pest or weed control at 250 g/ha [11]: 80%
- pest or weed control at 15.625 g/ha [12]: 60%
- pest or weed control at 62.5 g/ha [12]: 60%
- pest or weed control at 250 g/ha [12]: 60%
